We go through 32 compounds from patent US10947213B1 (Merck Patent GmbH, priority 2015, dated 2021).

Structures can show the parent of a compound that is named as a salt.

The test has as its target T1, TLR7/NFKb HEK cells (Homo sapiens, UniProt Q9NYK1).
T1 construct: expressed in transfected cells; host or cells: HEK cells (TLR7/NFKb reporter line)
T1 sequence (Q9NYK1 27-1049): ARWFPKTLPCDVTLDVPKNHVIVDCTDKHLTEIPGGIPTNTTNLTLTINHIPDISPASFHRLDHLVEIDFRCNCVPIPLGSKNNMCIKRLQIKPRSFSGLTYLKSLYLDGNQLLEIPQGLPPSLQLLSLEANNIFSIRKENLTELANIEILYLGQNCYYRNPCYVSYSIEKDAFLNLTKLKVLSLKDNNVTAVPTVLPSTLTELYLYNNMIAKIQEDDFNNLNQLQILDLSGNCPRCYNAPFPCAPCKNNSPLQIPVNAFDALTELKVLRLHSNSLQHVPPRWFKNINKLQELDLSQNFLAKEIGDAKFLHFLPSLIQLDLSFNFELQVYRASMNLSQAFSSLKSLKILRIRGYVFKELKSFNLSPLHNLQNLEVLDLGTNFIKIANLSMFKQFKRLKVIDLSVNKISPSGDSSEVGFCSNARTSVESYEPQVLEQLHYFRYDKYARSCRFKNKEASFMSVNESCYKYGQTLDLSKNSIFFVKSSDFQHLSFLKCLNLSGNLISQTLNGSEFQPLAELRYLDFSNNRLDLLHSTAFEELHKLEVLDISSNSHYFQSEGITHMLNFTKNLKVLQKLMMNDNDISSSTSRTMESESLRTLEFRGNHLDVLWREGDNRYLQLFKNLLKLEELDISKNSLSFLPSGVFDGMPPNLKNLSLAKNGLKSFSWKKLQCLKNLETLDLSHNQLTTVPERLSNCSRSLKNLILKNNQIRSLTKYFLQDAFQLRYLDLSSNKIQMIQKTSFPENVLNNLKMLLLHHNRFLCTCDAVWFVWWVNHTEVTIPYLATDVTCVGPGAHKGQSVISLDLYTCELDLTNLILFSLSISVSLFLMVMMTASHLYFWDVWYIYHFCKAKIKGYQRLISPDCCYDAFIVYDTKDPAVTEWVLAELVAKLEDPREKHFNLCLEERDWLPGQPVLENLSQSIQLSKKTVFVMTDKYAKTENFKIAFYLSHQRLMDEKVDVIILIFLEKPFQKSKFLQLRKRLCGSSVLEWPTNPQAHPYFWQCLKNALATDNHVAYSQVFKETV
Kind of test: HEK Cell Assay (TLR7/NFKb reporter, Steady-Glo luciferase readout). Format: cell-based. The settings on record: 30 min compound preincubation, then R*48 agonist for 5 hours, read-out: Potency. A digest of the protocol:
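Steady-Glo luminescence after 5 h stimulation with R*48 agonist, following 30 min compound preincubation. Assay run in HEK cells carrying a TLR7/NFKb luciferase reporter, plated at 5000 cells/well and grown 24 h at 37° C (10% CO2) before treatment.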

For the compound `CC(O)C(=O)N[C@@H]1C[C@H](C)CN(c2ccc(C#N)c3nccnc23)C1` (stereo partly drawn) [Compound 265, N-[(3R,5S)-1-(8-cyanoquinoxalin-5-yl)-5-methylpiperidin-3-yl]-2-hydroxypropanamide], the IC50 was < 1000 nM.

Consider `N#Cc1ccc(N2CCC(C(=O)NCCN3CCCC3)CC2)c2cccnc12` [Compound 422, 1-(8-Cyano-quinolin-5-yl)-piperidine-4-carboxylic Acid (2-pyrrolidin-1-yl-ethyl)-amide], for which the IC50 is < 1000 nM.

Regarding `N[C@H]1C[C@@H](C2CC2)CN(c2ccc(F)c3ncccc23)C1` (relative stereo) [Compound 333, cis-5-cyclopropyl-1-(8-fluoroquinolin-5-yl)piperidin-3-amine], the IC50 is < 1000 nM.

Take `C[C@H]1C[C@@H](NC(=O)C(N)C(F)(F)F)CN(c2ccc(C(F)F)c3ncccc23)C1` (single isomer, unassigned) [Compound 208]: the IC50 is < 1000 nM.

With `CC1CC(N)CN(c2ccc(F)c3nccnc23)C1` (single isomer, unassigned) [Compound 340], the IC50 was 1000 to 10000 nM.

In the case of `C[C@H]1C[C@@H](NC(=O)CC2CCCN(C)C2)CN(c2ccc(C#N)c3nccnc23)C1` (stereo partly drawn) [Compound 266, N-[(3R,5S)-1-(8-cyanoquinoxalin-5-yl)-5-methylpiperidin-3-yl]-2-(1-methylpiperidin-3-yl)acetamide hydrochloride], the IC50 is < 1000 nM.

Consider `COc1ccc(N2C[C@@H](C)C[C@@H](NC(=O)C(O)C(C)C)C2)c2nccnc12` (stereo in doubt) [Compound 201, (2R)-2-hydroxy-N-[(3R,5S)-1-(8-methoxyquinoxalin-5-yl)-5 methylpiperidin-3-yl]-3-methylbutanamide], for which the IC50 lay in the range of 1000 to 10000 nM.

In the case of `CN1CCC(CNC(=O)C2CN(c3ccc(C#N)c4ncccc34)CC(F)(F)C2)CC1` (single isomer, unassigned) [Compound 545], the IC50 fell in the range of 1000 to 10000 nM.

`CC(C(=O)N[C@@H]1C[C@H](C)CN(c2ccc(C(F)(F)F)c3nccnc23)C1)N1CCC(O)CC1` (single isomer, unassigned) [Compound 372]: the IC50 was < 1000 nM.

On to `C[C@H]1C[C@@H](NC(=O)C2CC(F)(F)C2)CN(c2ccc(C(F)F)c3nccnc23)C1` [Compound 329, N-[(3R,5S)-1-[8-(difluoromethyl)quinoxalin-5-yl]-5-methylpiperidin-3-yl]-3,3-difluorocyclobutane-1-carboxamide], for which the IC50 lay within 1000 to 10000 nM.

For the compound `C[C@H]1C[C@@H](NC(=O)CC(C)(C)CN)CN(c2ccc(C(F)(F)F)c3nccnc23)C1` [Compound 301, 4-amino-3,3-dimethyl-N-[(3R,5S)-5-methyl-1-[8-(trifluoromethyl)quinoxalin-5-yl]piperidin-3-yl]butanamide], the IC50 was < 1000 nM.

With `C[C@H]1C[C@@H](N)CN(c2ccnc3nccnc23)C1` [Compound 10, (3R,5S)-5-methyl-1-(pyrido[2,3-b]pyrazin-8-yl)piperidin-3-amine], the IC50 was < 1000 nM.

`CC(C(=O)N[C@@H]1C[C@H](C)CN(c2ccc(C(F)F)c3ncccc23)C1)N1CC(O)C1` (stereo partly drawn) [Compound 309, N-[(3R,5S)-1-[8-(difluoromethyl)quinolin-5-yl]-5-methylpiperidin-3-yl]-2-(3-hydroxyazetidin-1-yl)propanamide]: the IC50 was < 1000 nM.

On to `C[C@H]1C[C@@H](NC(=O)CC2CCN(C)CC2)CN(c2ccc(C(F)F)c3nccnc23)C1` [Compound 328, N-[(3R,5S)-1-[8-(difluoromethyl)quinoxalin-5-yl]-5-methylpiperidin-3-yl]-2-(1-methylpiperidin-4-yl)acetamide], for which the IC50 was < 1000 nM.

For the compound `N#Cc1ccc(N2CC(NC3CCC(O)CC3)CC(C(F)(F)F)C2)c2nccnc12` (single isomer, unassigned) [Compound 92, cis,trans-8-(-3-((4-hydroxycyclohexyl)amino)-5-(trifluoromethyl)piperidin-1-yl)quinoxaline-5-carbonitrile], the IC50 was in the range of 1000 to 10000 nM.

`C#CCC(=O)N[C@@H]1C[C@H](C)CN(c2ccc(C(F)(F)F)c3ncccc23)C1` [Compound 473, But-3-ynoic acid [(3R,5S)-5-methyl-1-(8-trifluoromethyl-quinolin-5-yl)-piperidin-3-yl]-amide]: the IC50 was < 1000 nM.

For the compound `C[C@H]1C[C@@H](NC(=O)C2(O)CC2)CN(c2ccc(C(F)(F)F)c3nccnc23)C1` [Compound 251, 1-hydroxy-N-[(3R,5S)-5-methyl-1-[8-(trifluoromethyl)quinoxalin-5-yl]piperidin-3-yl]cyclopropane-1-carboxamide], the IC50 was in the range of 1000 to 10000 nM.

On to `CCN(CC)C(=O)CCC(=O)N[C@@H]1C[C@H](C(F)(F)F)CN(c2ccc(C#N)c3ncccc23)C1` [Compound 579, N-[(3R,5S)-1-(8-Cyano-quinolin-5-yl)-5-trifluoromethyl-piperidin-3-yl]-N′,N′-diethyl-succinamide], for which the IC50 is 1000 to 10000 nM.

Turning to `CCN1CCC[C@H]1C(=O)NC1CC(C(F)(F)F)CN(c2ccc(C#N)c3ncccc23)C1` (single isomer, unassigned) [Compound 438], the IC50 fell in the range of 1000 to 10000 nM.

`CN(C)CC(=O)N[C@H]1C[C@@H](C(F)(F)F)CN(c2ccc(C#N)c3ncccc23)C1` (racemic) [Compound 426, cis-N-[1-(8-Cyano-quinolin-5-yl)-5-trifluoromethyl-piperidin-3-yl]-2-dimethylamino-acetamide]: the IC50 was < 1000 nM.

As for `OC1CCC(NC2CC(C(F)(F)F)CN(c3ccnc4nccnc34)C2)CC1` (single isomer, unassigned) [Compound 94, trans,cis-4-((1-(pyrido[2,3-b]pyrazin-8-yl)-5-(trifluoromethyl)piperidin-3-yl)amino)cyclohexanol], the IC50 is > 10000 nM.

As for `CN1CCC(NC2CC(C(F)(F)F)CN(c3ccc(C#N)c4nccnc34)C2)C1=O` (single isomer, unassigned) [Compound 227], the IC50 was in the range of 1000 to 10000 nM.

`C[C@H]1C[C@@H](NCC(N)=O)CN(c2ccc(C#N)c3nccnc23)C1` [Compound 122, 2-[[(3R,5S)-1-(8-cyanoquinoxalin-5-yl)-5-methylpiperidin-3-yl]amino]acetamide]: the IC50 was < 1000 nM.

In the case of `O=C(CCCN1CCCCC1)N1CCN(c2ccnc3nccnc23)CC1` [Compound 400, 4-Piperidin-1-yl-1-(4-pyrido[2,3-b]pyrazin-8-yl-piperazin-1-yl)-butan-1-one], the IC50 is > 10000 nM.

Take `C[C@H]1C[C@@H](NC(=O)C(C2CC2)N(C)C)CN(c2ccc(C(F)(F)F)c3ncccc23)C1` (stereo partly drawn) [Compound 519, 2-Cyclopropyl-2-dimethylamino-N-[(3R,5S)-5-methyl-1-(8-trifluoromethyl-quinolin-5-yl)-piperidin-3-yl]-acetamide]: the IC50 is < 1000 nM.

For the compound `COc1ccc(N2C[C@@H](C)C[C@@H](N)C2)c2cccnc12` [Compound 187, (3R,5S)-1-(8-methoxyquinolin-5-yl)-5-methylpiperidin-3-amine], the IC50 was < 1000 nM.

Regarding `N#Cc1ccc(N2CCC(C(=O)NCCN3CCCCC3)CC2)c2cccnc12` [Compound 403, 1-(8-Cyano-quinolin-5-yl)-piperidine-4-carboxylic acid (2-piperidin-1-yl-ethyl)-amide], the IC50 is < 1000 nM.

Turning to `C[C@H]1C[C@@H](NC(=O)CC2CCN(C)CC2)CN(c2ccc(F)c3ncccc23)C1` [Compound 471, N-[(3R,5S)-1-(8-Fluoro-quinolin-5-yl)-5-methyl-piperidin-3-yl]-2-(1-methyl-piperidin-4-yl)-acetamide], the IC50 was < 1000 nM.

For `C[C@H]1C[C@@H](NC(=O)NCC2CC(F)(F)C2)CN(c2ccc(C(F)(F)F)c3ncccc23)C1` [Compound 582, 1-(3,3-Difluoro-cyclobutylmethyl)-3-[(3R,5S)-5-methyl-1-(8-trifluoromethyl-quinolin-5-yl)-piperidin-3-yl]-urea], the IC50 was 1000 to 10000 nM.

Consider `CN(C)CC(=O)NC1CN(c2ccc(C#N)c3ncccc23)CC(F)(F)C1` (centres unmarked) [Compound 425, N-[1-(8-Cyano-quinolin-5-yl)-5,5-difluoro-piperidin-3-yl]-2-dimethylamino-acetamide], for which the IC50 was < 1000 nM.

With `CCC(C)CC(=O)N[C@@H]1C[C@H](C)CN(c2ccnc3nccnc23)C1` (single isomer, unassigned) [Compound 152], the IC50 lay within 1000 to 10000 nM.

Turning to `CC(C)(C)OCC(=O)NCC1CCN(c2ccc(C#N)c3ncccc23)CC1` [Compound 412, 2-tert-Butoxy-N-[1-(8-cyano-quinolin-5-yl)-piperidin-4-ylmethyl]-acetamide], the IC50 is > 10000 nM.
